According to US12678453B2, “Aerosolized formulations of HIV protease inhibitors for the treatment of airway reflux” (The Medical College of Wisconsin, Inc., priority 2020, dated 2026):
Square brackets hold non-standard residues; d marks the D form. Peptide text beside a SMILES is read from it. * marks the point of attachment. Sta = CC(C)C[C@H](N)[C@@H](O)CC(=O)O; Isovaleryl = CC(C)CC(=O)*

Tests used:
[1] = tested on: mouse model of laryngopharyngeal reflux (LPR); experiment: in vivo mouse model of LPR (laryngeal wounding and pepsin instillation, H&E histology); settings: for laryngeal histology (H&E) / pepsin-mediated laryngeal injury: pepsin pH7 group; for laryngeal histology (H&E): solvent (saline/PBS pH7) group
Text: An in vivo mouse model of direct application of pepsin, to mimic laryngeal exposure during LPR, and treatment with select HIV protease inhibitors by either gavage (oral systemic delivery) or aerosolized delivery (inhaled local delivery) was used. […] Each group contained 3 mice. Six-week-old female Jackson A/J mice (Jackson Laboratory, Bar Harbor, ME), weighed one day after arrival, then weekly, on Mondays thereafter.
Avertin was the preferred anesthetic for the brief application time needed as it has a rapid induction, produces a short surgical anesthesia, and has a rapid recovery. […] For this experiment, isoflurane inhalation was used. The isoflurane, self-scavenging machine, was operated at 3% isoflurane with 2.5 liters of air per minute (LPM). The induction chamber was charged for 3-5 minutes prior to the mice being anesthetized. Mice were placed in the induction chamber for 3-5 minutes prior to any wounding or administrations. Anesthesia records were kept according to IACUC policy.
Animals secured by a copper wire attached to the board from which the mice were suspended by their upper teeth. This caused the lower jaw to fall open naturally, exposing the larynx and permitting visualization with a Zeiss microscope at 6× magnification. […] Under direct visualization, the subglottis, glottis, and supraglottis regions were superficially scratched interiorly from distal to proximal as the needle was pulled out gently, making a mild abrasion. This procedure was performed twice, with one week between woundings.
To examine the effect pepsin at acid and nonacid pH, animals were treated for 2 weeks with laryngeal instillation of pepsin (20 μL at 0.3 mg/ml, pH 7.0 or pH 4.0) at 24, 48, and 72 h post wounding procedure. During weeks 3 and 4, animals were treated with laryngeal instillation for 3 days per week. Mice were sacrificed and samples collected on Friday of the fourth week.
The twelve mice in the aerosol groups were condition in the nose-only exposure chamber (Intox) on three separate days by exposure to dry air for 10 min. Beginning the Monday (day 1) of the next week, aerosols and gavages were performed on the mice Monday through Friday (5 exposures). The aerosols and gavages continued Monday-Friday for three more weeks, with the final week consisting of 4 total exposure days, Monday-Thursday, (19 total) with the mice sacrificed and tissues harvested on Friday. Each mouse received two woundings and 12 solvent or pepsin administrations. Wounding and intratracheal administrations were concurrent with the aerosol and gavage treatments. The first wounding was performed on day 2, followed by solvent or pepsin administrations on days 3, 4, and 5. The second wounding was performed on day 8, followed by solvent or pepsin administrations on days 9, 10, and 11. In weeks 3 and 4, mice received solvent or pepsin administrations on days 16, 17, and 18 and days 23, 24, and 25. Day 26 was sacrifice and tissue harvest.
A 10 mL suspension of drug in ethanol was placed in the baffle, such that the concentration would remain constant at the equilibrium solubility. Droplets of ethanol containing dissolve drug were generated by an ultrasonic atomizer (nominal frequency 1.7 MHz) entrained by air at a flow rate of 0.5 LPM with a custom-built glass baffle (University of Minnesota, Department of Chemistry Glass Shop). The aerosol cloud was then passed through a cylindrical drying column containing an annular ring of charcoal. The ethanol is removed and the emanating dry aerosol particles of pure drug were then directed into the exposure chamber.
The mass deposited on the filters in a fixed collection time was measured gravimetrically, and with the collection time, allowed calculation of the total output rate (mg/min). The aerosol concentration (mass/volume of air) was calculated by dividing the total output rate by the air flow rate (0.5 LPM).

[2] = preliminary 12-day toxicity study of aerosolized fosamprenavir; type: in vivo, mice; settings: 12-day exposure
Description: In the following Example, the inventors used a small-scale powder disperser (SSPD) to aerosolize Fosamprenavir powder, and monitored particle size distribution by an Optical Particle Sizer (OPS). The SSPD inhales the powder through a venturi aspirator, which is then sampled through OPS at 1 L/min of flow (FIG. 11).
A preliminary 12-day toxicity study was conducted in mice. […] This was the only animal affected, across 15 treated mice, so this is suspected to be unrelated to the fosamprenavir treatment.

[3] = tested on: 14 relevant biomarkers for inflammation and toxicity; experiment: Luminex assay of bronchiolar lavage samples; type: in vivo, mice; settings: control versus lowest dose
Text: Bronchiolar lavage samples were collected from all mice and a Luminex assay was used to measure 14 relevant biomarkers for inflammation and toxicity.

[4] = known clinical profile; cited from earlier work
[5] = cited from earlier work
pepsin = settings: Roberts 2003; cited from earlier work
[6] = cited from earlier work; remark: listed apart in the source

| Compound | laryngeal histology (H&E) / pepsin-mediated laryngeal injury ([1]; aerosol) | laryngeal histology (H&E) ([1]; aerosol) | laryngeal histology (H&E) / pepsin-mediated laryngeal injury ([1]; gavage) | laryngeal histology (H&E) ([1]; gavage) | pepsin-mediated laryngeal injury (multi-layered, reactive epithelia and cell apoptosis) ([1]; inhalation, 1 mg/kg/d) | pathology in nasal cavity, larynx, esophagus, trachea, lung, liver, and kidney tissues ([2]; mice) | heart pathology ([2]; one of 15 treated mice, suspected to be unrelated to treatment) | IL-6 in bronchiolar lavage [3] | side effects / tolerability [4] | pharmacokinetics ([5]; in mice) | oral bioavailability ([5]; prodrug compared with amprenavir) | affinity for pepsin (pepsin) | water solubility [6] |
| --- | --- | --- | --- | --- | --- | --- | --- | --- | --- | --- | --- | --- | --- |
| CC(C)CN(C[C@@H](OP(=O)(O)O)[C@H](Cc1ccccc1)NC(=O)O[C@H]1CCOC1)S(=O)(=O)c1ccc(N)cc1 [fosamprenavir, [(3 S)-oxolan-3-yl]N-[(2S,3R)-4-[(4-aminophenyl)sulfonyl-(2-methylpropyl)amino]-1-phenyl-3-phosphonooxybutan-2-yl]carbamate] | normal histology | normal histology | normal histology | normal histology | prevented pepsin mediated laryngeal injury | No pathology was observed | significant inflammation | showed significance | favorable tolerability profile | excellent pharmacokinetics | improved oral bioavailability | – | – |
| CC(C)CC(=O)N[C@H](C(=O)N[C@H](C(=O)N[C@@H](CC(C)C)[C@@H](O)CC(=O)N[C@@H](C)C(=O)N[C@@H](CC(C)C)[C@@H](O)CC(=O)O)C(C)C)C(C)C [pepstatin] (Isovaleryl-VV[Sta]A[Sta]-OH) | – | – | – | – | – | – | – | – | – | – | – | subnanomolar | poor water-solubility |
